According to patent US8283373B2, “Inhibitors of cytosolic phospholipase A2” (Pfizer Inc., priority 2005, dated 2012):
“Also recorded” adds a separate entry of the source.

Assays:
[1] = test system: primary cerebellar granule neurons; experiment: Oxygen-glucose deprivation (OGD) in cultured cerebellar granule neurons; format: cell-based, rat; conditions: for percent cell death (lactate dehydrogenase release), Avg.: OGD 2 hours, control 14, OGD 51
Experimental: Primary cerebellar granule neurons were isolated from P5-8 rat pups. Briefly, cerebelli were collected and pooled in ice-cold phosphate buffer saline (PBS) without Ca^2+ and Mg^2+. The tissue was finely chopped and transferred to an enzymatic dissociation media containing 20 IU/ml papain in Earle's balanced salt solution (Worthington Biochemical, Freehold, N.J.) and incubated for 30 minutes at 37° C. After enzymatic dissociation, the papain solution was aspirated and the tissue mechanically triturated with a fire-polished Pasteur pipette in complete media [Neurobasal Medium with B-27 supplement (Gibco, Grand Island, N.Y.), penicillin/streptomycin, aphidicolin, glutamate, potassium chloride] containing 2,000 IU/ml DNase and 10 mg/ml ovomucoid protease inhibitor. Single-cell suspensions in complete media were plated on pre-coated poly-L-ornithine/laminin 24-well plates (Becton-Dickinson, Bedford, Mass.) at a density of
5.0×10^5 cells/well. Cells were maintained for two weeks prior to experimentation.
Cultures were treated with Compound A at various concentrations, 60 minutes before OGD. Media was removed and replaced with deoxygenated buffer in an anaerobic chamber (80% nitrogen, 10% hydrogen, 10% carbon dioxide gas mixture). Fresh Compound A, Example 34 or Example 41 was added to the cultures and maintained in the anaerobic chamber for 2 hours. At the end of the incubation, fresh media was exchanged and fresh Compound A was added. Cultures were maintained for an additional 24 hours in a normoxic incubator. Cell death was determined by measuring lactate dehydrogenase release into the media 24 hours later (Roche Biochemicals). In the table below, values are shown for the control, OGD, various concentrations of Compound A, and MK801, a NMDA receptor antagonist, which is a positive control.

[2] = test system: serum thromboxane B2; experiment: Thromboxane B2 levels in the ApoE KO mouse model; format: in vivo; conditions: ApoE KO mice, 3.3 mg/g chow for two days; vehicle 76.1±17.3
Experimental: Blood was collected through the retro-orbital siunus and left to coagulate at 37° C. for one hour. Serum was then isolated and assayed for thromboxane B2 by ELISA.
In a separate experiment, ApoE KO mice were dosed with vehicle or the compound of Example 25 at 10 mg/kg by oral gavage. Blood was collected through the retro-orbital siunus and left to coagulate at 37° C. for one hour. Serum was then isolated and assayed for thromboxane B2 by ELISA.

[3] = test system: TXB2; experiment: Rat Whole Blood Assay (A23187-stimulated TXB2); format: cell-based; conditions: Rattus norvegicus; A23187 5 μM
Summary of the method: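 Heparinized male Sprague-Dawley rat blood pre-incubated 15 min at 37 °C with compound or DMSO, then stimulated with 5 μM (final) A23187 for 10 min at 37 °C. Stopped with 20 mM EDTA; TXB2 in methanol-extracted plasma measured by ELISA.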

[4] = test system: CFA-induced hyperalgesia; experiment: CFA-induced hyperalgesia model; format: in vivo, rat; conditions: 6 hours after CFA
Description: The sensitivity of peripheral sensory neurons can be enhanced such that they respond to both noxious and non-noxious stimuli resulting in chronic pain (See Julius, D. et al., Nature. 2001; 413:203; Woolf, C. J., et al., Science. […]; 288:1765). Prostaglandins and leukotrienes at the site of inflammation and tissue damage are partially responsible for this potentiation of the pain response. Prostaglandins promote the phosphorylation of ion channels, increasing the excitability and lowering the pain threshold of sensory neurons. Analogously, leukotriene B4 and related arachidonate metabolites of 12-LO bind to and activate the capsaicin receptor (or VR1) ion channel on neurons that respond to heat and low pH (See Piomelli D., TRENDS in Pharmacological Sciences, January 2001; 22(1):17-29). The effect of the compound of Example 10 was measured in the CFA-induced hyperalgesia model, and lipid mediator production was measured at peripheral and central sites.
The animals were dosed with vehicle, the compound of Example 10, naproxen or celecoxib, and then CFA was immediately injected into the hind footpad. To assess hyperalgesia, pressure was applied to the left hind paw at a slow and constant rate using a digital force gauge. Measurements were taken at 0 and 6 hours. The application of the force was stopped when the animal vocalized, or struggled. Readings were taken prior to dosing and CFA injection, and repeated six hours after the CFA injection. Two independent experiments were run and the data were analyzed separately.
The paws were collected at the end of each experiment (6 hours) and the levels of PGE2, LTB4 and TXB2 were measured in the exudates.

SMILES | protection of cultured neurons from OGD-induced cell death [1] | percent cell death (lactate dehydrogenase release), Avg. ([1]; 0.1 μM) [%] | percent cell death (lactate dehydrogenase release), Avg. ([1]; 0.3 μM) [%] | percent cell death (lactate dehydrogenase release), Avg. ([1]; 1 μM) [%] | percent cell death (lactate dehydrogenase release), Avg. ([1]; 3 μM) [%] | serum Thromboxane concentration [2] [ng/mL] | IC50 [3] [nM] | pain (paw pressure) compared to vehicle control ([4]; 25 mg/kg) | LTB4 levels in paw exudates [4] | TXB2 levels in paw exudates [4] | PGE2 levels in paw exudates ([4]; Example 10 at 25 mg/kg)
Cc1cccc(C)c1CS(=O)(=O)NCCc1c(CCCc2ccc(C(=O)O)cc2)c2cc(Cl)ccc2n1C(c1ccccc1)c1ccccc1 [Compound A, 4-{3-[1-benzhydryl-5-chloro-2-(2-{[(2,6-dimethylbenzyl)sulfonyl]amino}ethyl)-1H-indol-3-yl]propyl}benzoic acid] | effective in protecting cultured neurons from OGD-induced cell death | 38 | 31 | 27 | 20 | – | – | – | – | – | –
O=C(O)c1ccc(CCCc2c(CCNS(=O)(=O)Cc3ccccc3C(F)(F)F)n(C(c3ccccc3)c3ccccc3)c3ccc(Cl)cc23)cc1 [Example 10, 4-(3-{5-chloro-1-(diphenylmethyl)-2-[2-({[2-(trifluoromethyl)benzyl]sulfonyl}amino)ethyl]-1H-indol-3-yl}propyl)benzoic acid] | – | – | – | – | – | 1.4 ± 0.7 | 20 | statistically significant decrease; also recorded: effective | significantly inhibited | greater than the inhibition with celecoxib | significantly inhibited
